Source: paper PMC3380012, “Wild-Type Phosphoribosylpyrophosphate Synthase (PRS) from Mycobacterium tuberculosis: A Bacterial Class II PRS?” (PLoS ONE, 2012)
Several values for one entry are separate records, joined by “and”; a condition that tells them apart may be missing. Identical values can stand only once. Entries after “also recorded” stand apart in the source; their conditions may differ. Like-named read-outs stand apart in the source and are kept apart here.

Columns and labels:
[1] = target: T1, MtOPRT (M. tuberculosis orotate phosphoribosyltransferase) (Mycobacterium tuberculosis, UniProt P9WHK9); test: Control measurement of coupled enzyme MtOPRT activity in presence of donors and inhibitors; assay type: biochemical; conditions: compounds present in the assay mixtures of the coupled assays; data not shown
T1 construct: made in house
Protocol: (§1) All chemicals were purchased from Sigma Aldrich. All enzyme activity assays were performed in triplicate. MtPRS activity was measured by a coupled continuous spectrophotometric assay in quartz cuvettes using a UV-visible Shimadzu spectrophotometer UV2550 equipped with a temperature-controlled cuvette holder. […] Homogeneous recombinant MtOPRT was obtained as described elsewhere. […] The reaction mixture (500 µL) contained 1.8 U MtOPRT, 300 µM OA, 20 mM MgCl2, in Tris HCl 50 mM pH 8.0. Reaction was started by addition of MtPRS (0.24–1.2 µM). One unit of MtPRS is defined as the amount of enzyme necessary to convert 1 µmol of R5P to PRPP per min. Effect of Pi over MtPRS activity was assessed by varying Pi concentration (10–50 mM) in the reaction conditions described above.
Accordingly, the effects of the alternative diphosphoryl group donors, or nucleoside 5′-diphosphate or monophosphate inhibitors, were solely due to changes in MtPRS enzyme activity.

M. tuberculosis PRS [2] = conditions: cited from earlier work; for IC50: read-out: IC50 (inhibition of MtPRS activity)
MtPRS [3] = target: T2, MtPRS (Mycobacterium tuberculosis, UniProt P9WKE3); test: MtPRS inhibition assays (coupled assay, fixed R5P and ATP); assay type: biochemical
Protocol: as §1
All measurements were performed in triplicate. The concentration of inhibitor required to reduce the fractional enzyme activity to half of its initial value in the absence of inhibitor (IC50) was obtained from fitting the data to Eq. (4) for partial inhibition, in which y is the fractional activity of the enzyme in the presence of inhibitor at concentration [I]; y (max) is the maximum value of y observed at [I] = 0; and y min is the minimum limiting value of y at high inhibitor concentrations. [drawing 4] (4)

MtPRS [4] = target: T2, MtPRS; test: Intrinsic tryptophan fluorescence (ITF) titration, binary complex formation at equilibrium; assay type: binding; conditions: for Kd: Tris HCl 50 mM pH 7.5, MgCl2 20 mM, read-out: KD (hyperbolic binding to free MtPRS); for change in intrinsic protein fluorescence upon titration of free MtPRS: absence of second substrate
Protocol: Intrinsic tryptophan fluorescence titration was carried out to assess binary complex formation at equilibrium between MtPRS and either substrate(s) or product(s) at 25°C [43]. […] Fluorescence titrations were performed by making microliter additions of substrates and products at varying stock concentrations to 1 mL of MtPRS 3 µM, with a maximum dilution of 6%. […] After each ligand titration, the mixture was stirred for 3 minutes to ensure equilibrium binding prior to ITF measurements. […] Control experiments were performed in the same conditions in the absence of MtPRS to verify any inner filter effect, and the values found in the control experiments were subtracted from those obtained in the presence of the enzyme. No corrections for effects of protein dilution on ITF upon addition of buffer A containing MgCl2 20 mM to MtPRS were necessary. Data from equilibrium fluorescence spectroscopy were fitted to Eq. (5) for hyperbolic binding isotherms, in which F is the observed fluorescence signal; F max is the maximal fluorescence intensity; and KD represents the dissociation constant for binding of substrate and/or product to MtPRS. Sigmoidal binding data were fitted Eq. (6), in which F is the observed fluorescence signal, F max is the maximal fluorescence intensity, n is the Hill coefficient, and K’ is a constant comprising interaction factors and the intrinsic dissociation constant. [drawing 5] (5) [drawing 6] (6)

M. tuberculosis PRS [5] = conditions: ref Alderwick, et al. 2011 [30], cited from earlier work
S. typhimurium PRS = tested on: S. typhimurium PRS; design: method as in PMID 211378; conditions: cited from earlier work
[6] = target: T3, MtPRS (Mycobacterium tuberculosis phosphoribosylpyrophosphate synthase) (Mycobacterium tuberculosis, UniProt P9WKE3); conditions: diphosphoryl donor varied, R5P fixed at 60 µM, 25°C
[7] = target: T3, MtPRS (Mycobacterium tuberculosis phosphoribosylpyrophosphate synthase); test: biochemical
[8] = tested on: O=P(O)(O)OC[C@H]1O[C@H](O)[C@H](O)[C@@H]1O; test: purified protein, by the assay type; conditions: pH 8.0
[9] = tested on: Nc1nc2c(ncn2[C@@H]2O[C@H](COP(=O)(O)OP(=O)(O)OP(=O)(O)O)[C@@H](O)[C@H]2O)c(=O)[nH]1; test: purified protein, by the assay type; conditions: pH 8.0
[10] = tested on: O=c1ccn([C@@H]2O[C@H](COP(=O)(O)OP(=O)(O)OP(=O)(O)O)[C@@H](O)[C@H]2O)c(=O)[nH]1; test: purified protein, by the assay type; conditions: pH 8.0
[11] = target: the molecule itself; test: cross-linking; glutaraldehyde vapour cross-linking, 0.3 mg/mL MtPRS in Tris HCl 50 mM pH 7.5 with ADP 5 mM, with or without Pi 50 mM, 30°C, 12% SDS-PAGE
[12] = target: the molecule itself; test: cross-linking; glutaraldehyde vapour cross-linking, 0.3 mg/mL apo MtPRS in Tris HCl 50 mM pH 7.5, with or without Pi 50 mM, 30°C, different incubation times, 12% SDS-PAGE
[13] = target: the molecule itself; test: cross-linking; glutaraldehyde vapour cross-linking, 0.3 mg/mL MtPRS in Tris HCl 50 mM pH 7.5 with R5P 5 mM, with or without Pi 50 mM, 30°C, 12% SDS-PAGE
[14] = target: the molecule itself; test: cross-linking; glutaraldehyde vapour cross-linking, 0.3 mg/mL MtPRS in Tris HCl 50 mM pH 7.5 with ATP 5 mM, with or without Pi 50 mM, 30°C, 12% SDS-PAGE
[15] = target: the molecule itself; test: cross-linking; glutaraldehyde vapour cross-linking, 0.3 mg/mL apo MtPRS in Tris HCl 50 mM pH 7.5, with or without Pi 50 mM, 30°C, different incubation times, 12% SDS-PAGE; remark: listed apart in the source
[16] = read-out: IC50 (partial inhibition of MtPRS activity)
[17] = 37°C, KH2PO4 50 mM pH 8.0, ref Lucarelli, et al. 2010 [31]
[18] = ref Lucarelli, et al. 2010 [31]

T1 sequence (P9WHK9 whole entry): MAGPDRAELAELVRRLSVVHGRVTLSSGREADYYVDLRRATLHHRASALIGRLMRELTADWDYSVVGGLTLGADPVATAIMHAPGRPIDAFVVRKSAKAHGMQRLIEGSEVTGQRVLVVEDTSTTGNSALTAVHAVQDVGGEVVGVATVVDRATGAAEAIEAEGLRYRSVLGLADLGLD

Nc1ncnc2c1ncn2[C@@H]1O[C@H](COP(=O)(O)OP(=O)(O)O)[C@@H](O)[C@H]1O [ADP, adenosine 5′-diphosphate]
effect on MtOPRT enzyme activity [1]: did not have any effect
IC50 (M. tuberculosis PRS [2]; saturating ATP and non-saturating Pi concentrations): 260 µM
IC50 (M. tuberculosis PRS [2]; saturating ATP and saturating Pi concentrations): 400 µM
IC50 (MtPRS [3]; [16]): 70 µM

Nc1ncnc2c1ncn2[C@@H]1O[C@H](COP(=O)(O)O)[C@@H](O)[C@H]1O [AMP]
K' (sigmoidal binding, Hill equation) (MtPRS [4]; 25°C, MtPRS 3 µM, MgCl2 20 mM): 109 (±3) µM and 109 µM
Hill coefficient (MtPRS [4]; sigmoidal binding to free MtPRS): 3.2

Nc1ncnc2c1ncn2[C@@H]1O[C@H](COP(=O)(O)OP(=O)(O)OP(=O)(O)O)[C@@H](O)[C@H]1O [ATP, adenosine 5′-triphosphate]
effect on MtOPRT enzyme activity [1]: did not have any effect
Kd (MtPRS [4]; 25°C, MtPRS 3 µM): 18 µM
kcat (M. tuberculosis PRS [2]; [17]): 34.6 (±3) s^−1
S0.5 (M. tuberculosis PRS [2]; [18]): 260 (±50) µM
n (Hill coefficient) (M. tuberculosis PRS [2]; [18]): 1
Vmax (M. tuberculosis PRS [5]; 37°C, KH2PO4 50 mM pH 8.0): 601 µmol⁻¹ min⁻¹ mg⁻¹
S0.5 (M. tuberculosis PRS [5]): 62.65 µM
n (Hill coefficient) (M. tuberculosis PRS [5]): 1.68

Nc1ccn([C@@H]2O[C@H](COP(=O)(O)OP(=O)(O)OP(=O)(O)O)[C@@H](O)[C@H]2O)c(=O)n1 [CTP, cytosine 5′-triphosphate]
activity as alternative substrate, of maximum reported activity using ATP as substrate (S. typhimurium PRS): 3%
effect on MtOPRT enzyme activity [1]: did not have any effect
change in intrinsic protein fluorescence upon titration of free MtPRS (MtPRS [4]; 25°C, MtPRS 3 µM): No change in protein fluorescence; also recorded: no change in IFT could be detected
Vmax (apparent) ([6]; pH 8.0, no Pi): 0.111 (±0.003) µmol^−1 min^−1 mg^−1
kcat ([6]; pH 8.0, no Pi): 0.065 (±0.001) s^−1
Km ([6]; read-out: KM (apparent), Tris HCl 50 mM pH 8.0, MgCl2 20 mM, no Pi): 26 µM

Nc1nc2c(ncn2[C@@H]2O[C@H](COP(=O)(O)OP(=O)(O)O)[C@@H](O)[C@H]2O)c(=O)[nH]1 [GDP, guanosine 5′-diphosphate]
effect on MtOPRT enzyme activity [1]: did not have any effect
IC50 (M. tuberculosis PRS [2]; in the presence of Pi): > 5000 µM
IC50 (MtPRS [3]; [16]): 900 µM

Nc1nc2c(ncn2[C@@H]2O[C@H](COP(=O)(O)OP(=O)(O)OP(=O)(O)O)[C@@H](O)[C@H]2O)c(=O)[nH]1 [GTP, guanosine 5′-triphosphate]
activity as alternative substrate, of maximum reported activity using ATP as substrate (S. typhimurium PRS): 3%
effect on MtOPRT enzyme activity [1]: did not have any effect
Kd (MtPRS [4]; 25°C, MtPRS 3 µM): 21 µM

O=c1[nH]cnc2c1ncn2[C@@H]1O[C@H](COP(=O)(O)OP(=O)(O)OP(=O)(O)O)[C@@H](O)[C@H]1O [ITP]
activity as alternative substrate, of maximum reported activity using ATP as substrate (S. typhimurium PRS): 3%

O=P(O)(O)OC[C@H]1O[C@H](OP(=O)(O)OP(=O)(O)O)[C@H](O)[C@@H]1O [PRPP, 5-phospho-α-D-ribose 1-diphosphate]
change in intrinsic protein fluorescence upon titration of free MtPRS (MtPRS [4]; 25°C, MtPRS 3 µM): no intrinsic protein fluorescence change; also recorded: No change in ITF could be detected

O=P(O)(O)OC[C@H]1O[C@H](O)[C@H](O)[C@@H]1O [R5P, α-D-ribose 5-phosphate]
Kd (MtPRS [4]; 25°C, MtPRS 3 µM): 61 µM
Km (M. tuberculosis PRS [2]; [17]): 71 µM
kcat (M. tuberculosis PRS [2]; [17]): 37.1 s⁻¹
Ki [7]: 211 µM
Km (M. tuberculosis PRS [5]; 37°C, KH2PO4 50 mM pH 8.0): 8.2 µM
Vmax (M. tuberculosis PRS [5]; 37°C, KH2PO4 50 mM pH 8.0): 530 µmol⁻¹ min⁻¹ mg⁻¹
kcat (M. tuberculosis PRS [5]; 37°C, KH2PO4 50 mM pH 8.0): 60.68 s⁻¹

O=c1ccn([C@@H]2O[C@H](COP(=O)(O)O)[C@@H](O)[C@H]2O)c(=O)[nH]1 [UMP]
effect on MtOPRT enzyme activity [1]: did not have any effect
IC50 (MtPRS [3]; R5P 60 µM, ATP 300 µM fixed, 0.24 µM MtPRS, no Pi, fit to partial inhibition equation): 3000 µM

O=c1ccn([C@@H]2O[C@H](COP(=O)(O)OP(=O)(O)OP(=O)(O)O)[C@@H](O)[C@H]2O)c(=O)[nH]1 [UTP, uridine 5′-triphosphate]
activity as alternative substrate, of maximum reported activity using ATP as substrate (S. typhimurium PRS): 3%
effect on MtOPRT enzyme activity [1]: did not have any effect
change in intrinsic protein fluorescence upon titration of free MtPRS (MtPRS [4]; 25°C, MtPRS 3 µM): No change in protein fluorescence; also recorded: no change in IFT could be detected

MtPRS (Mycobacterium tuberculosis phosphoribosylpyrophosphate synthase) (Mycobacterium tuberculosis H37Rv)
Km [8]: 14 (±2) µM
Vmax [8]: 1.41 µmol/min/mg
kcat [8]: 0.83 ± 0.04 s⁻¹
kcat/Km [8]: 59000 ± 8000 M⁻¹ s⁻¹
Km [9]: 37 (±9) µM
Vmax [9]: 0.237 µmol/min/mg
kcat [9]: 0.14 ± 0.002 s⁻¹
kcat/Km [9]: 3800 ± 900 M⁻¹ s⁻¹
Km [10]: 52 (±7) µM
Vmax [10]: 0.264 µmol/min/mg
kcat [10]: 0.155 s⁻¹
kcat/Km [10]: 3000 M⁻¹ s⁻¹

B1: Mycobacterium tuberculosis phosphoribosylpyrophosphate synthase (MtPRS) (enzyme)
chain: MSHDWTDNRKNLMLFAGRAHPELAEQVAKELDVHVTSQDAREFANGEIFVRFHESVRGCDAFVLQSCPAPVNRWLMEQLIMIDALKRGSAKRITAVMPFYPYARQDKKHRGREPISARLIADLLKTAGADRIVTVDLHTDQIQGFFDGPVDHMRGQNLLTGYIRDNYPDGNMVVVSPDSGRVRIAEKWADALGGVPLAFIHKTRDPRVPNQVVSNRVVGDVAGRTCVLIDDMIDTGGTIAGAVALLHNDGAGDVIIAATHGVLSDPAAQRLASCGAREVIVTNTLPIGEDKRFPQLTVLSIAPLLASTIRAVFENGSVTGLFDGDA
notes: also called prsA gene product; Rv1017c
stoichiometry N [11]: 4
stoichiometry N [12]: 3
stoichiometry N [13]: 6
stoichiometry N [14]: 2
stoichiometry N [15]: 6
